Results as given in patent publication US20240358693A1, “METHODS OF TREATING PAIN” (Aisa Pharma, Inc., priority 2023, published 2024).

System: participants with SSc-RP
Experiment: Scleroderma Health Assessment Questionnaire (SHAQ): disability indices and visual analog scales
Format: in vivo, human
Outline: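 Participants with SSc-RP completed the SHAQ at screening and each in-clinic visit. Standard and alternative disability indices (eight categories, 0–3; standard adjusts for aids/assistance) plus Raynaud's VAS on interference over the past 7 days. Reported as absolute change from baseline to end of each dosing period.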

[1] = Pooled Cilnidipine 10 mg and Cilnidipine 10 mg + Tadalafil 5 mg (N = 9), sensitivity analysis, Modified ITT, Part A
[2] = Pooled Cilnidipine 20 mg and Cilnidipine 20 mg + Tadalafil 5 mg (N = 7), sensitivity analysis, Modified ITT, Part A
[3] = Pooled Cilnidipine (10 mg or 20 mg) (N = 7)
[4] = Pooled Cilnidipine (10 mg or 20 mg) (N = 7), n 6
[5] = Pooled Cilnidipine (N = 6), Day 12, Modified ITT, SSc patients, Part A
[6] = Pooled Cilnidipine (N = 7), sensitivity analysis, Modified ITT, Part A

COCCOC(=O)C1=C(C)NC(C)=C(C(=O)OC/C=C/c2ccccc2)C1c1cccc([N+](=O)[O-])c1 (stereo not drawn) [Cilnidipine, cilnidipine]
SHAQ VAS Raynaud's: Percent Change from Baseline, Mean [1]: −9.97%
SHAQ VAS Raynaud's: Percent Change from Baseline, Median [1]: −4.39%
SHAQ Standard Disability Index: Baseline, Mean [2]: 0.554
SHAQ Standard Disability Index: Baseline, Median [2]: 0.375
SHAQ Standard Disability Index: Change from Baseline, Mean [2]: −0.092
SHAQ Standard Disability Index: Change from Baseline, Median [2]: 0.000
SHAQ Standard Disability Index: Day 12, Mean [2]: 0.462
SHAQ Standard Disability Index: Day 12, Median [2]: 0.250
SHAQ Standard Disability Index: Percent Change from Baseline, Mean [2]: −5.99%
SHAQ Standard Disability Index: Percent Change from Baseline, Median [2]: −33.33%
SHAQ VAS Breathing Problems: Baseline, Mean [2]: 1.071
SHAQ VAS Breathing Problems: Baseline, Median [2]: 0.800
SHAQ VAS Breathing Problems: Change from Baseline, Mean [2]: 0.171
SHAQ VAS Breathing Problems: Change from Baseline, Median [2]: 0.000
SHAQ VAS Breathing Problems: Day 12, Mean [2]: 1.243
SHAQ VAS Breathing Problems: Day 12, Median [2]: 0.400
SHAQ VAS Breathing Problems: Percent Change from Baseline, Mean [2]: 103.99%
SHAQ VAS Breathing Problems: Percent Change from Baseline, Median [2]: 24.48%
SHAQ VAS Finger Ulcers: Baseline, Mean [2]: 1.986
SHAQ VAS Finger Ulcers: Baseline, Median [2]: 0.100
SHAQ VAS Finger Ulcers: Change from Baseline, Mean [2]: −0.950
SHAQ VAS Finger Ulcers: Change from Baseline, Median [2]: −0.050
SHAQ VAS Finger Ulcers: Day 12, Mean [2]: 1.367
SHAQ VAS Finger Ulcers: Day 12, Median [2]: 0.350
SHAQ VAS Finger Ulcers: Percent Change from Baseline, Mean [2]: −15.69%
SHAQ VAS Finger Ulcers: Percent Change from Baseline, Median [2]: −48.04%
SHAQ VAS Intestinal Problems: Baseline, Mean [2]: 0.886
SHAQ VAS Intestinal Problems: Baseline, Median [2]: 1.000
SHAQ VAS Intestinal Problems: Change from Baseline, Mean [2]: 0.271
SHAQ VAS Intestinal Problems: Change from Baseline, Median [2]: 0.000
SHAQ VAS Intestinal Problems: Day 12, Mean [2]: 1.157
SHAQ VAS Intestinal Problems: Day 12, Median [2]: 0.200
SHAQ VAS Intestinal Problems: Percent Change from Baseline, Mean [2]: 12.47%
SHAQ VAS Intestinal Problems: Percent Change from Baseline, Median [2]: 30.00%
SHAQ VAS Overall Disease Severity: Baseline, Mean [2]: 3.200
SHAQ VAS Overall Disease Severity: Baseline, Median [2]: 2.900
SHAQ VAS Overall Disease Severity: Change from Baseline, Mean [2]: −1.186
SHAQ VAS Overall Disease Severity: Change from Baseline, Median [2]: −1.500
SHAQ VAS Overall Disease Severity: Day 12, Mean [2]: 2.014
SHAQ VAS Overall Disease Severity: Day 12, Median [2]: 1.200
SHAQ VAS Overall Disease Severity: Percent Change from Baseline, Mean [2]: −44.99%
SHAQ VAS Overall Disease Severity: Percent Change from Baseline, Median [2]: −44.74%
SHAQ VAS Pain: Baseline, Mean [2]: 2.667
SHAQ VAS Pain: Baseline, Median [2]: 2.550
SHAQ VAS Pain: Change from Baseline, Mean [2]: −0.700
SHAQ VAS Pain: Change from Baseline, Median [2]: −0.650
SHAQ VAS Pain: Day 12, Mean [2]: 2.000
SHAQ VAS Pain: Day 12, Median [2]: 2.100
SHAQ VAS Pain: Percent Change from Baseline, Mean [2]: −33.40%
SHAQ VAS Pain: Percent Change from Baseline, Median [2]: −51.06%
SHAQ VAS Raynaud's: Baseline, Mean [2]: 2.314
SHAQ VAS Raynaud's: Baseline, Median [2]: 0.900
SHAQ VAS Raynaud's: Change from Baseline, Mean [2]: −1.014
SHAQ VAS Raynaud's: Change from Baseline, Median [2]: −0.300
SHAQ VAS Raynaud's: Day 12, Mean [2]: 1.300
SHAQ VAS Raynaud's: Day 12, Median [2]: 0.600
SHAQ VAS Raynaud's: Percent Change from Baseline, Mean [2]: −34.71%
SHAQ VAS Raynaud's: Percent Change from Baseline, Median [2]: −40.67%
SHAQ patient reported disease severity, Change from Baseline, Mean [3]: −1.214
SHAQ patient reported disease severity, Change from Baseline, Median [3]: −1.500
SHAQ patient reported disease severity, In-Clinic Visit (Day 12), Mean [3]: 1.486
SHAQ patient reported disease severity, In-Clinic Visit (Day 12), Median [3]: 1.200
SHAQ patient reported disease severity, Percent Change from Baseline, Mean [4]: −59.80%
SHAQ patient reported disease severity, Percent Change from Baseline, Median [4]: −55.86%
SHAQ Alternative Disability Index: Change from Baseline, Mean [5]: 0.000
SHAQ Alternative Disability Index: Change from Baseline, Median [5]: −0.063
SHAQ Alternative Disability Index: In-Clinic Visit (Day 12), Mean [5]: 0.438
SHAQ Alternative Disability Index: In-Clinic Visit (Day 12), Median [5]: 0.188
SHAQ Alternative Disability Index: Percent Change from Baseline, Mean [5]: −12.90%
SHAQ Alternative Disability Index: Percent Change from Baseline, Median [5]: −22.22%
SHAQ Standard Disability Index: Change from Baseline, Mean [5]: −0.063
SHAQ Standard Disability Index: Change from Baseline, Median [5]: 0.000
SHAQ Standard Disability Index: In-Clinic Visit (Day 12), Mean [5]: 0.500
SHAQ Standard Disability Index: In-Clinic Visit (Day 12), Median [5]: 0.188
SHAQ Standard Disability Index: Percent Change from Baseline, Mean [5]: −25.00%
SHAQ Standard Disability Index: Percent Change from Baseline, Median [5]: −16.67%
SHAQ Visual Analogue Scale - Breathing Problems: Change from Baseline, Mean [5]: −0.617
SHAQ Visual Analogue Scale - Breathing Problems: Change from Baseline, Median [5]: −0.400
SHAQ Visual Analogue Scale - Breathing Problems: In-Clinic Visit (Day 12), Mean [5]: 1.200
SHAQ Visual Analogue Scale - Breathing Problems: In-Clinic Visit (Day 12), Median [5]: 0.200
SHAQ Visual Analogue Scale - Breathing Problems: Percent Change from Baseline, Mean [5]: −8.17%
SHAQ Visual Analogue Scale - Breathing Problems: Percent Change from Baseline, Median [5]: −41.33%
SHAQ Visual Analogue Scale - Finger Ulcers: Change from Baseline, Mean [5]: −0.750
SHAQ Visual Analogue Scale - Finger Ulcers: Change from Baseline, Median [5]: −0.350
SHAQ Visual Analogue Scale - Finger Ulcers: In-Clinic Visit (Day 12), Mean [5]: 0.617
SHAQ Visual Analogue Scale - Finger Ulcers: In-Clinic Visit (Day 12), Median [5]: 0.350
SHAQ Visual Analogue Scale - Finger Ulcers: Percent Change from Baseline, Mean [5]: −17.08%
SHAQ Visual Analogue Scale - Finger Ulcers: Percent Change from Baseline, Median [5]: −50.82%
SHAQ Visual Analogue Scale - Intestinal Problems: Change from Baseline, Mean [5]: −1.083
SHAQ Visual Analogue Scale - Intestinal Problems: Change from Baseline, Median [5]: 0.000
SHAQ Visual Analogue Scale - Intestinal Problems: In-Clinic Visit (Day 12), Mean [5]: 1.300
SHAQ Visual Analogue Scale - Intestinal Problems: In-Clinic Visit (Day 12), Median [5]: 0.950
SHAQ Visual Analogue Scale - Intestinal Problems: Percent Change from Baseline, Mean [5]: −15.53%
SHAQ Visual Analogue Scale - Intestinal Problems: Percent Change from Baseline, Median [5]: −7.06%
SHAQ Visual Analogue Scale - Overall Disease Severity: Change from Baseline, Mean [5]: −1.350
SHAQ Visual Analogue Scale - Overall Disease Severity: Change from Baseline, Median [5]: −1.550
SHAQ Visual Analogue Scale - Overall Disease Severity: In-Clinic Visit (Day 12), Mean [5]: 1.733
SHAQ Visual Analogue Scale - Overall Disease Severity: In-Clinic Visit (Day 12), Median [5]: 1.300
SHAQ Visual Analogue Scale - Overall Disease Severity: Percent Change from Baseline, Mean [5]: −51.76%
SHAQ Visual Analogue Scale - Overall Disease Severity: Percent Change from Baseline, Median [5]: −51.72%
SHAQ Visual Analogue Scale - Pain: Change from Baseline, Mean [5]: −0.500
SHAQ Visual Analogue Scale - Pain: Change from Baseline, Median [5]: −0.250
SHAQ Visual Analogue Scale - Pain: In-Clinic Visit (Day 12), Mean [5]: 1.617
SHAQ Visual Analogue Scale - Pain: In-Clinic Visit (Day 12), Median [5]: 1.400
SHAQ Visual Analogue Scale - Pain: Percent Change from Baseline, Mean [5]: −29.23%
SHAQ Visual Analogue Scale - Pain: Percent Change from Baseline, Median [5]: −48.78%
SHAQ Visual Analogue Scale - Raynaud's: Change from Baseline, Mean [5]: −0.550
SHAQ Visual Analogue Scale - Raynaud's: Change from Baseline, Median [5]: −0.600
SHAQ Visual Analogue Scale - Raynaud's: In-Clinic Visit (Day 12), Mean [5]: 1.667
SHAQ Visual Analogue Scale - Raynaud's: In-Clinic Visit (Day 12), Median [5]: 1.250
SHAQ Visual Analogue Scale - Raynaud's: Percent Change from Baseline, Mean [5]: −18.64%
SHAQ Visual Analogue Scale - Raynaud's: Percent Change from Baseline, Median [5]: −38.67%
SHAQ Standard Disability Index: Baseline, Mean [6]: 0.482
SHAQ Standard Disability Index: Baseline, Median [6]: 0.375
SHAQ Standard Disability Index: Change from Baseline, Mean [6]: −0.054
SHAQ Standard Disability Index: Change from Baseline, Median [6]: 0.000
SHAQ Standard Disability Index: Day 12, Mean [6]: 0.429
SHAQ Standard Disability Index: Day 12, Median [6]: 0.125
SHAQ Standard Disability Index: Percent Change from Baseline, Mean [6]: −25.00%
SHAQ Standard Disability Index: Percent Change from Baseline, Median [6]: −16.67%
SHAQ VAS Breathing Problems: Baseline, Mean [6]: 1.557
SHAQ VAS Breathing Problems: Baseline, Median [6]: 0.200
SHAQ VAS Breathing Problems: Change from Baseline, Mean [6]: −0.529
